Like-named read-outs stand apart in the source and are kept apart here.
Assays:
[1] = system: G. lamblia WB strain; test: In vitro susceptibility assay, G. lamblia trophozoites; format: cell-based, Giardia lamblia; settings: Giardia duodenalis, 48 h, read-out: G. lamblia (IC50 nM), trophozoites, 48 h at 37 °C, subcultured 48 h, Probit analysis
Experimental: (§1) G. lamblia WB strain, T. vaginalis GT3 strain, and E. histolytica strain HM1-IMSS were used in all experiments, all parasitic strains were obtained from the Unidad de Investigación Médica en Enfermedades Infecciosas y Parasitarias, Hospital de Pediatría, Instituto Mexicano del Seguro Social. In vitro susceptibility assays to determine IC50 values were performed using a method previously described. For this, 4 × 10^4 G. lamblia; 6 × 10^3 E. histolytica, or 4 × 10^4 T. vaginalis trophozoites were incubated for 48 h at 37 °C with different concentrations of quinoxaline derivatives T-137 to T-170 (0.5 ng/mL to 10 μg/mL) using dimethyl sulfoxide (DMSO) (0.05%) as solvent. Metronidazole and albendazole were used as positive controls, and parasites in the medium without drugs containing DMSO (0.05%) were included as negative controls. At the end of the incubation period, trophozoites were washed and subcultured for another 48 h in a fresh medium without drugs. Then, trophozoites were counted with a haemocytometer and the IC50 was calculated by Probit analysis. Experiments were carried out in triplicate and repeated at least twice.

[2] = system: T. vaginalis GT3 strain; test: In vitro susceptibility assay, T. vaginalis trophozoites; format: cell-based, Trichomonas vaginalis
Experimental: as §1

[3] = system: E. histolytica strain HM1-IMSS; test: In vitro susceptibility assay, E. histolytica trophozoites; format: cell-based, Entamoeba histolytica
Experimental: as §1

[4] = system: murine macrophage cell line J774.2; test: Cytotoxic evaluation, MTT colorimetric assay; format: cell-based; settings: murine macrophages J774.2, read-out: Cytotoxicity (Macrophages J774.2) (CC50)
Experimental: The murine macrophage cell line J774.2 was maintained in culture flasks with RPMI 1640 medium supplemented with 10% FBS, and 100 U/mL antibiotic-antifungal mixture (Gibco). Cells were incubated at 37 °C with 5% CO2 and humidity. Murine macrophage cell line J774.2 is maintained at Laboratorio de Estudios Epidemiológicos, Clínicos, Diseños Experimentales e Investigación, Facultad de Ciencias Químicas, Universidad Autónoma “Benito Juárez” de Oaxaca. Macrophages were washed and viability was assessed by the MTT colorimetric assay. In a 96-well microplate, 1 × 10^5 macrophages were added per well and a dose-response assay was performed. Compounds were evaluated using serial dilutions to determine half-maximal cytotoxic concentration (CC50) values in triplicate considering 0.2% DMSO as negative control.

[5] = target: T1, recombinant E. histolytica thioredoxin reductase (EhTRXR) (Entamoeba histolytica, UniProt C4LW95); test: Inhibition of EhTrxR DTNB reductase activity; format: biochemical; settings: for inhibition at 100 µM: pH 7, read-out: EhTrxR inhibitory effect (disulphide reductase activity)
T1 construct: His-tag (pET28a) (N); made in house; host or cells: E. coli BL21 (DE3)
T1 sequence (C4LW95 1-314): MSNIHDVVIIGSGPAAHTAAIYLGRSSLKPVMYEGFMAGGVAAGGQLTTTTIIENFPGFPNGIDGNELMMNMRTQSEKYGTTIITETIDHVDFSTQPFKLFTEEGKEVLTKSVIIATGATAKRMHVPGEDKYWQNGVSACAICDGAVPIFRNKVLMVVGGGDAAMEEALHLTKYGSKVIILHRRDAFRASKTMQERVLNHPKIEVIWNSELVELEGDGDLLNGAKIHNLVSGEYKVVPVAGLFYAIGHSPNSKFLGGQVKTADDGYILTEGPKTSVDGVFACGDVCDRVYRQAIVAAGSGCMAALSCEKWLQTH
Experimental: Recombinant E. histolytica thioredoxin reductase (EhTRXR) was expressed in E. coli BL21 (DE3) as His-tag (N-terminal) recombinant proteins using pET28a vector, and it was purified using IMAC as previously described. 5,5′-Dithiobis(2-nitrobenzoic acid) (DTNB) reductase activity was measured by monitoring the production of thionitrobenzoate at 405 nm in a reaction mixture comprising 50 mM potassium phosphate, pH 7.0, 2 mM EDTA, 300 µM NADPH, 5 mM DTNB, and 0.1 µM EhTRXR. Activity was calculated using the molar extinction coefficient at 405 nm of 13.6 mM^−1cm^− 1 and considering that 1 mol of NADPH yields 2 mol of thionitrobenzoate. The enzyme assays were performed at 30 °C, in a final volume of 50 μL, and using a Multiskan Ascent one-channel vertical light path filter photometer (Thermo Electron Co.). All results represent the arithmetic mean of at three independent experiments.

[6] = Trichomonas vaginalis, GT3, 48 h, read-out: T. vaginalis (IC50 nM), trophozoites, 48 h at 37 °C, subcultured 48 h, Probit analysis
[7] = read-out: T. vaginalis (IC50 nM), trophozoites, 48 h at 37 °C, subcultured 48 h, Probit analysis
[8] = Entamoeba histolytica, 48 h, read-out: E. histolytica (IC50 nM), trophozoites, 48 h at 37 °C, subcultured 48 h, Probit analysis
[9] = read-out: E. histolytica (IC50 nM), trophozoites, 48 h at 37 °C, subcultured 48 h, Probit analysis

CCCCOC(=O)c1ccc2c(c1)[n+]([O-])c(C(=O)OC(C)(C)C)c(C)[n+]2[O-] [Compound T-140]
IC50 [1]: 49.2 ± 2.66 nM
IC50 [2, 6]: ~100 nM
IC50 [2, 7]: 101 ± 3.99 nM
IC50 [3, 8]: ~30 nM
IC50 [3, 9]: 29.2 ± 2.66 nM
CC50 [4]: > 200 µM
inhibition at 100 µM [5]: 50 to 75%

CC(C)COC(=O)c1ccc2c(c1)[n+]([O-])c(C(=O)c1ccco1)c(C(F)(F)F)[n+]2[O-] [Compound T-165]
IC50 [1]: 101 ± 2.36 nM
IC50 [2, 6]: 125 ± 2.36 nM
IC50 [3, 8]: 30.6 ± 2.36 nM
CC50 [4]: 81.8 ± 3.59 µM

CCCCOC(=O)c1ccc2c(c1)[n+]([O-])c(C(=O)c1ccc3ccccc3c1)c(C(F)(F)F)[n+]2[O-] [Compound T-150]
IC50 [1]: 51.6 ± 2.27 nM
IC50 [2, 6]: 124 ± 2.27 nM
IC50 [3, 8]: 36.1 ± 1.14 nM
CC50 [4]: > 200 µM

CCCCOC(=O)c1ccc2c(c1)[n+]([O-])c(C(=O)OCC)c(C)[n+]2[O-] [Compound T-139]
IC50 [1]: 47.4 ± 5.75 nM
IC50 [2, 6]: ~100 nM
IC50 [2, 7]: 103 ± 2.87 nM
IC50 [3, 8]: ~30 nM
IC50 [3, 9]: 34.5 ± 7.18 nM
CC50 [4]: > 200 µM

CCCCOC(=O)c1ccc2c(c1)[n+]([O-])c(C(C)=O)c(C(F)(F)F)[n+]2[O-] [Compound T-145]
IC50 [1]: 40.3 ± 6.72 nM
IC50 [2, 6]: 108 ± 16.1 nM
IC50 [3, 8]: 57.8 ± 6.72 nM
CC50 [4]: > 200 µM
IC50 ([5]; DTNB reductase activity, 30 °C, pH 7.0): 16 µM
inhibition at 100 µM [5]: > 75%

CCCCOC(=O)c1ccc2c(c1)[n+]([O-])c(C(=O)OC)c(C)[n+]2[O-] [Compound T-138]
IC50 [1]: 48.5 ± 1.5 nM
IC50 [2, 6]: 88 nM
IC50 [2, 7]: 88.3 ± 12 nM
IC50 [3, 8]: ~40 nM
IC50 [3, 9]: 40.4 ± 4.49 nM
CC50 [4]: 46.2 ± 3.26 µM

Cc1c(C(=O)c2ccccc2)[n+]([O-])c2cc(C(=O)OCC(C)C)ccc2[n+]1[O-] [Compound T-157]
IC50 [1]: 43.4 ± 1.32 nM
IC50 [2, 6]: 153 ± 6.58 nM
IC50 [3, 8]: 55.2 ± 5.26 nM
CC50 [4]: 34.2 ± 3.04 µM
inhibition at 100 µM [5]: 50 to 75%

COC(=O)c1c(C)[n+]([O-])c2ccc(C(=O)OCC(C)C)cc2[n+]1[O-] [Compound T-156]
IC50 [1]: 95.8 ± 4.49 nM
IC50 [2, 6]: 248 ± 5.99 nM
IC50 [3, 8]: 59.9 ± 5.99 nM

Cc1ncc([N+](=O)[O-])n1CCO [Metronidazole, reference compound]
IC50 [1]: 1150 ± 40.9 nM
IC50 [2, 6]: 210 ± 8.76 nM
IC50 [3, 8]: 251 ± 5.48 nM

Cc1ccc(NC(=O)c2c(C)[n+]([O-])c3ccc(C(=O)OCC(C)C)cc3[n+]2[O-])c(C)c1 [Compound T-159]
IC50 [1]: 94.5 ± 3.54 nM
IC50 [2, 6]: 105 ± 1.18 nM
IC50 [3, 8]: 30.7 ± 5.91 nM
CC50 [4]: > 200 µM
EhTrxR inhibitory effect (disulphide reductase activity) ([5]; 100 µM compound, 5 mM DTNB, 300 µM NADPH, 30 °C, pH 7.0): low inhibition

CCCCOC(=O)c1ccc2c(c1)[n+]([O-])c(C(=O)Nc1ccccc1)c(-c1ccccc1)[n+]2[O-] [Compound T-151]
IC50 [1]: 114 ± 4.38 nM
IC50 [2, 6]: 153 ± 3.28 nM
IC50 [3, 8]: 65.6 ± 2.19 nM
CC50 [4]: 44.1 ± 3.45 µM

Cc1c(C(=O)Nc2ccccc2)[n+]([O-])c2cc(C(=O)OCC(C)C)ccc2[n+]1[O-] [Compound T-158]
IC50 [1]: 62 ± 1.27 nM
IC50 [2, 6]: 164 ± 10.1 nM
IC50 [3, 8]: 38 ± 2.53 nM
CC50 [4]: > 200 µM

— publication PMC11523249, “Expanding the antiprotozoal activity and the mechanism of action of n-butyl and iso-butyl ester of quinoxaline-1,4-di-N-oxide derivatives against Giardia lamblia, Trichomonas vaginalis, and Entamoeba histolytica. An in vitro and in silico approach” (Journal of Enzyme Inhibition and Medicinal Chemistry, 2024)
